The values that follow come from publication PMC7699524, “Assessing the Intestinal Permeability and Anti-Inflammatory Potential of Sesquiterpene Lactones from Chicory” (Nutrients, 2020).

Marks after values point to notes of the source that are not given here.

For data set [1], the system named is Caco-2 cells. Put plainly: Permeability across Caco-2 monolayer (apical concentration by LC-MS). The following applies: for % of Decrease in SL Concentration in the Apical Side (t = 4h) / SL conjugates with cysteine in the apical side after 4 h / Concentration of SL (Apical Side) t = 4 h / Concentration of SL (Apical Side) t = 0 h: Caco-2 monolayer; for % of Decrease in SL Concentration in the Apical Side (t = 4h): 10 µM apical, 4 h vs t = 0 h; for Concentration of SL (Apical Side) t = 4 h / Concentration of SL (Apical Side) t = 0 h: SL added at 10 µM apical; for Concentration of SL (Apical Side) t = 4 h: after 4 h; for Concentration of SL (Apical Side) t = 0 h: before experiment. On the procedure:
For intestinal permeability assessments of pure SLs, Caco-2 cells were seeded in 12 mm Transwell® inserts (polyester membrane, 0.4 μm pore size, Corning Costar Corp., NY, USA) at a density of 1.0 × 10^5 cell/cm^2. Cells were allowed to grow and differentiate to a confluent monolayer for 21 days postseeding with medium change three times per week. This mimics the apical and basolateral sides of the intestinal mucosa. Before the permeability assay, cells were washed with Hank’s balanced salt solution (HBSS) (Gibco, Life Technologies, Paisley, UK), and pure SLs in HBSS were added to the apical side for 4 h at the noncytotoxic concentration of 10 μM, while the basolateral well was replaced by HBSS. The fluorescent marker fluorescein (2.7 µM) was used as control, having been submitted to the same protocol as the SLs. Cells were submitted to an orbital shaking of 125 rpm (Ohaus, Shanghai, China), and samples from the basolateral side were collected after 15 min, 30 min, and then every hour until the end of the assay, and each time the retrieved volume was replaced by fresh HBSS to maintain sink conditions. After the 4 h assay, both apical and basolateral contents were collected, the cells were washed with PBS followed by culture medium, and culture medium was added to both compartments for 24 h to assess monolayer recovery. All samples were stored at −80 °C until LC-MS analysis.
Transepithelial electrical resistance (TEER) of all monolayers was monitored before and during experiments, and 24 h after the assay, to ensure their integrity using an EVOM™ voltmeter (WPI, Berlin, Germany). Before each experiment, TEER was measured and only monolayers with a TEER value higher than 500 Ω cm^2 were used. Experiments were done in triplicate.
Ultra High Performance Liquid Chromatography (UHPLC) separations were performed with a Dionex U3000 UHPLC coupled with a U3000 Photo Diode Array (PDA) and an LTQ-Orbitrap XL Mass Spectrometry (MS) system (Thermo-Fisher Ltd., Hemel Hempstead, UK). The MS and PDA systems were tuned and calibrated according to the manufacturers recommended procedures. The UHPLC was operated under Xcalibur and Chromeleon software (Thermo-Fisher Ltd. UK). A flow rate of 300 µL/min was applied, the column and guard (Synergi C18 Hydro-RP 80 Ä, 150 × 2.0 mm, 4 µm particle size; Phenomenex Ltd. U.K.) were maintained at a temperature of 30 °C. The solvent system compositions were, A: HPLC grade water (J.T. Baker, Scientific Chemical Supplies Ltd. UK), and solvent B: HPLC grade acetonitrile (J.T. Baker, Scientific Chemical Supplies Ltd. UK), both acidified with 0.1% MS grade formic acid (Ultima, Fisher Scientific, UK). A sample injection volume of 10 µL was employed in partial-loop mode. The gradient program was as follows: hold 2% B 0–2 min, 2–5% B 2–5 min, 5–45% B 5–25 min, 45–100% B 25–35 min, hold 100% B 35–38 min, 100–2% B 38–39 min, hold 2% B 39–44 min. Autosampler syringe and line washes were performed with 2:8 HPLC grade water: acetonitrile (J.T. Baker, Scientific Chemical Supplies Ltd., UK). The HPLC column eluent was first monitored by the U3000 PDA detector where spectra were collected in wavelength/absorbance mode from 200–600 nm. Additionally, three channel set points were employed, Channel A 210 nm, Channel B 260 nm, Channel C 320 nm. Spectra were collected with a filter bandwidth of 8 nm and wavelength step of 1 nm, the scan rate was 5 Hz.
The UHPLC eluent was next transferred to a Thermo LTQ-Orbitrap XL mass spectrometry system operated under Xcalibur (Thermo-Fisher Ltd. UK). For the first two minutes of analysis the UHPLC eluent was diverted to waste, from two to 39 min the eluent was directed to the MS detector, before being diverted back to waste between 39–44 min. Mass spectra were collected in centroid mode with a primary full scan event (m/z 100–1000) at a mass resolution of 30,000 (FWHM defined at m/z 400) within the Fourier Transform (FT) detector.
In general terms: Passage across Caco-2 layers is used to estimate intestinal permeability.

The test system of data set [2] is calcineurin-Crz1 pathway. Put plainly: β-Galactosidase CDRE-lacZ yeast reporter assay of Crz1 activation. Type of data set: cell-based, S. cerevisiae. The following applies: Saccharomyces cerevisiae, MnCl2 3 mM activation, strain YAA5; for inhibition at 12.5 µM: read-out: Calcineurin-Crz1 Inhibition (%) ± SD, 12.5 µM. The procedure: Cultures at OD600= 0.5 ± 0.05 were diluted to OD600= 0.1 ± 0.01, transferred to 96-well microplate and challenged with the highest nontoxic concentration previously determined for each compound to investigate their putative inhibitory effect towards the calcineurin-responsive zinc finger (Crz1) activation. Measurements of β-galactosidase activity driven by the calcineurin-dependent response element (CDRE) regulated lacZ reporter gene allowed the quantitative assessment of the capacity of each compound to inhibit the activation of Crz1. FK506 (Cayman Chemicals, Ann Arbor, MI, USA) was used as a positive control at a final concentration of 12.5 μM. After 90 min of incubation with the respective compounds at 30 °C under orbital shaking, MnCl2 (Merck, Saint Louis, MO, USA) was added at a final concentration of 3 mM. After 90 min of incubation under the same conditions, OD600 of cultures were recorded, 10 μL of cell suspensions were transferred to a new 96-well plate followed by addition of 20 μL Y-PER cell lysis reagent (ThermoFisher Scientific), and the plates were incubated for 20 min at 37 °C without agitation. 240 μL of LacZ buffer (8.5 g/L Na2HPO4 (ROTH), 5.5 g/L NaH2PO4.H2O (Merck), 0.75 g/L KCl (Panreac), 0.246 g/L MgSO4.7H2O (Merck) containing […] o-nitrophenyl β-D-galactopyranoside (ONPG) (Sigma–Aldrich®—Poole, Dorset, UK) was added to each well, and plates were incubated at 30 °C for 2 h. The OD420 and OD550 were monitored using a Biotek Power Wave XS Microplate Spectrophotometer (Biotek® Instruments, Winooski, VT, USA). The results were expressed as Miller units (MU), applying the following equation, where V = volume of culture assayed in mL; t = reaction time in minutes: Miller unit = 1000 × (OD420 − 1.75 × OD550)/(t × V × OD600)(1)
For orientation: Reporter assays use an easily measured gene product as a stand-in for the process of interest.

Data set [3] has as its system yeast cells. Put plainly: Yeast cell viability (Cell Titer Blue). It counts as cell-based, S. cerevisiae. The following applies: Cell Titer Blue assay. On the procedure: Doses of SLs ranging from 12.5 μM to 100 μM for each compound were used in the yeast viability assays. Cultures obtained were diluted to a final OD600 = 0.025 ± 0.0025. The viability assays were performed in 96-wells microplates using 100 µL of diluted culture suspensions and 10 µL of Cell Titer Blue reagent (Promega, WI, USA) according to manufacturer’s instructions for 3 h at 30 °C. Fluorescence was measured in 30 min intervals at emission wavelength 580 nm using the Biotek Power Wave XS Microplate Spectrophotometer (Biotek® Instruments, Winooski, VT, USA).
(In general: Alamar Blue is a resazurin reagent that responds to reducing activity.)

Setting [4] is: Caco-2 apical side, conjugates estimated against calibration curves of parent SLs.
Where [5] appears, read: LC-MS, apical side, t = 4 h, parent SLs added at 10 μM.

In the case of `C/C1=C\[C@H]2OC(=O)C(CSC[C@H](N)C(=O)O)[C@@H]2CC/C(C)=C/CC1` (stereo partly drawn) [Costunolide-Cys], in data set [1] (setting [4]), the “Apical Concentration t = 4 h (µM Equivalents to Parent SL)” value (from here on “Apical Concentration t = 4 h”) was 95 ± 8.4 µM Equivalents to Parent SL. The “Peak Area (Average a.u.)” value in data set [1] (setting [5]) is reported as 3.1 × 10^8 a.u.
With `CC1=C2C(=O)C=C(CO)C2C2OC(=O)C(C)C2C(OC(=O)Cc2ccc(O)cc2)C1` (stereo not drawn) [11β,13-dihydrolactucopicrin], the inhibition at 12.5 µM in data set [2] stood at 26 ± 11%. Further, in data set [1], the “% of Decrease in SL Concentration in the Apical Side (t = 4h)” value (“% of Decrease in SL Concentration” for short) is on record as 29.9 * %, the “Concentration of SL (Apical Side) t = 4 h” value was found to be 4.9 ± 0.9 µM and the “Concentration of SL (Apical Side) t = 0 h” value is reported as 7.0 ± 1.2 µM. In data set [1] (LC-MS), the “SL conjugates with cysteine in the apical side after 4 h” value (shortened to “SL conjugates with cysteine”) is on record as “not detected”.
Take `C=CC[C@@H]1/C=C(\C)C[C@H](C)C[C@H](OC)[C@H]2O[C@@](O)(C(=O)C(=O)N3CCCC[C@H]3C(=O)O[C@H](/C(C)=C/[C@@H]3CC[C@@H](O)[C@H](OC)C3)[C@H](C)[C@@H](O)CC1=O)[C@H](C)C[C@@H]2OC` [FK506, reference compound]: the inhibition at 12.5 µM in data set [2] came to 67 ± 13%.
On to `CC1=C2C(=O)C=C(CO)C2C2OC(=O)C(CSCC(N)C(=O)O)C2C(O)C1` (stereo not drawn) [Lactucin-Cys], for which the “Apical Concentration t = 4 h” value in data set [1] (Caco-2) is 2.9 ± 3.6 µM Equivalents to Parent SL.
On the same count and under the same terms, next, `CC1=CCCC2(C)OC2C2OC(=O)C(CSCC(N)C(=O)O)C2CC1` (stereo not drawn) [Parthenolide-Cys]: 27 ± 5.9 µM Equivalents to Parent SL.
Take `C=C1C(=O)O[C@@H]2[C@H]3C(CO)=CC(=O)C3=C(C)C[C@H](O)[C@@H]12` [Lactucin, lactucin]: the inhibition at 12.5 µM in data set [2] was determined as 20 ± 14%. Moreover, the “Apical Concentration t = 4 h” value in data set [1] (setting [4]) is on record as 5.9 ± 0.5 µM Equivalents to Parent SL. Further, in data set [1], the “% of Decrease in SL Concentration” value was 28.8 *** %, the “Concentration of SL (Apical Side) t = 4 h” value amounted to 5.9 ± 0.5 µM and the “Concentration of SL (Apical Side) t = 0 h” value stood at 8.3 ± 0.7 µM. Also, the “% of Decrease in SL Concentration” value in data set [1] (listed as lactucin) is reported as “≈ 30%”. Also, the “SL conjugates with cysteine” value in data set [1] (LC-MS) is “detected”. For the same molecule, the “Peak Area (Average a.u.)” value in data set [1] (setting [5]) is 6.8 × 10^7 a.u.
On to `C=C1C(=O)O[C@@H]2[C@H]3C(CO)=CC(=O)C3=C(C)C[C@H](OC(=O)Cc3ccc(O)cc3)[C@@H]12` [Lactucopicrin, lactucopicrin], for which the inhibition at 12.5 µM in data set [2] worked out at 18 ± 9%. Further, the “Apical Concentration t = 4 h” value in data set [1] (setting [4]) is “<LOQ”. Also, in data set [1], the “% of Decrease in SL Concentration” value is 100 ** %, the “Concentration of SL (Apical Side) t = 4 h” value is “<LOQ” and the “Concentration of SL (Apical Side) t = 0 h” value worked out at 12.4 ± 1.3 µM. For the same molecule, in data set [1] (LC-MS), the “SL conjugates with cysteine” value is on record as “detected”. The “Concentration of SL (Apical Side) t = 4 h” value in data set [1] (listed as lactucopicrin) was “LOQ”. Besides, the “Peak Area (Average a.u.)” value in data set [1] (setting [5]) is 1.2 × 10^6 a.u.
For `C=C1C(=O)O[C@H]2[C@H]1CC/C(C)=C/CC[C@@]1(C)O[C@@H]21` [Parthenolide, parthenolide, reference compound], the inhibition at 12.5 µM in data set [2] is 20 ± 12%. For the same molecule, the “Apical Concentration t = 4 h” value in data set [1] (setting [4]) is reported as “<LOQ”. Besides, in data set [1], the “% of Decrease in SL Concentration” value was 100 ** %, the “Concentration of SL (Apical Side) t = 4 h” value is recorded as “<LOQ” and the “Concentration of SL (Apical Side) t = 0 h” value worked out at 11.9 ± 2.0 µM. In addition, the “SL conjugates with cysteine” value in data set [1] (LC-MS) is recorded as “detected”. Besides, in data set [1] (human, Caco-2, 4 h, 10 µM), the “Peak Area (Average a.u.)” value is 9.2 × 10^5 a.u.
`C=C1C(=O)O[C@@H]2/C=C(\C)CC/C=C(\C)CC[C@@H]12` [Costunolide]: the “Highest nontoxic concentration in yeast” value in data set [3] was 6.25 µM. For the same molecule, in data set [2] (read-out: Calcineurin-Crz1 Inhibition (%) ± SD, 6.25 µM), the inhibition at 6.25 µM is 18 ± 9%. Further, the “Apical Concentration t = 4 h” value in data set [1] (setting [4]) is listed as “<LOD”. In data set [1], the “% of Decrease in SL Concentration” value is 100 ** %, the “Concentration of SL (Apical Side) t = 4 h” value is given as “<LOD” and the “Concentration of SL (Apical Side) t = 0 h” value is 13.1 ± 1.8 µM. Further, the “SL conjugates with cysteine” value in data set [1] (LC-MS) is reported as “detected”. For the same molecule, the “Concentration of SL (Apical Side) t = 4 h” value in data set [1] (listed as costunolide) was “LOQ”.
In the case of `CC1=C2C(=O)C=C(CO)C2C2OC(=O)C(CSCC(N)C(=O)O)C2C(OC(=O)Cc2ccc(O)cc2)C1` (stereo not drawn) [Lactucopicrin-Cys], the “Apical Concentration t = 4 h” value in data set [1] (Caco-2) is 17.8 ± 2.9 µM Equivalents to Parent SL.

As usually defined, the inhibition is the change of the read-out against control, counted positive when it falls.
